Laboratory results reported in patent publication US7390826B2, “Inhibitors of animal cell motility and growth” (The Board of Trustees of The University of Illinois, priority 2002, dated 2008).
Entries after “also recorded” stand apart in the source; their conditions may differ. Read-outs that look alike come from different tables or passages of the source.

Key:
Xenopus laevis embryos = assay: frog embryo morphogenesis assay (scoring of developmental defects); type: in vivo; details: for EC50: Xenopus laevis, 72 h
Text: In order to identify compounds that specifically perturb morphogenesis in the frog embryo, a suitable method for scoring embryos by characteristic defects was developed. A useful starting point was the “dorso-anterior index” (DAI). The DAI originally was constructed by adding new morphological characteristics to the older “index of axis deficiency” (S. R. Scharf et al., Dev. Biol., 99, 75-87 (1983)). The DAI is a scale of dorsoanterior development wherein embryos are assigned a score based on degree of dorsoanterior phenotype (K. R. Kao et al., Dev. Biol., 127, 64-77 (1988)). The scale encompasses a score of 0 (for the most axis-deficient or ventralized embryos) to 10 (for embryos with the most enhanced dorsoanterior structures), with a score of 5 signifying a normal embryo.
Because the DAI focuses only on dorsoanterior phenotypes, other categories were added to describe possible defects more comprehensively, with an emphasis on characteristics that are easily and unambiguously recognized in intact embryos, and that are diagnostic of possible effects on morphogenesis during gastrulation and neurulation. The most useful and readily scored categories that covered the most frequent deficiencies were: reduced anterior structures and microcephaly, delayed appearance or absence of eye pigmentation, overall shortness along the anteroposterior axis, bent axis, bent tail only, reduced posterior structures/tail, malformed or reduced fins, delayed or failed neural tube closure (neural fold fusion), abnormal pigmentation pattern, ventral swelling (edema), and delayed or abnormal visceral organogenesis and yolk resorption. In addition, blastopore closure, an earlier process that marks the completion of gastrulation, was observed.
In these tests, test compounds were added individually to wells each containing 4-8 embryos in 12-well plates. Embryos at stage 8.5-9, according to the classification of Nieuwkoop and Faber (P. I. Nieuwkoop et al., Normal Table of Xenopus laevis (Daudin). Amsterdam: North-Holland Publ.) (1967)), were used because these are late blastula stages before gastrulation begins at stage 10, which allowed focusing primarily on compounds that affect morphogenetic events in gastrulation and neurulation. These embryos, therefore, have undergone a midblastula transition at stage 8 (cleavage division 12) when zygotic transcription begins (J. Newport et al., Cell, 30, 675-686 (1982); J. Newport et al., Cell, 30, 687-696 (1982)) but have not yet started the morphogenetic movements of gastrulation.
Standard procedures were used in the care of animals, gamete preparation, fertilization of oocytes, and culture of embryos (B. K. Kay et al., Methods in Cell Biology, Volumn 36 (San Diego: Academic Press, Inc.) (1991)). In order to stimulate ovulation, female frogs were injected with 500 units of human chorionic gonadotropin (HCG). Eggs were squeezed from female frogs 12 hours later. Testes were removed from euthanized male frogs that had been primed with 50 units of HCG 4-6 hours earlier. The testes were stored at 4° C. in single strength Marc's Modified Ringer's solution with 50 μg/ml gentamycin and used for no more than 10 days. Small pieces of testes were macerated and spread over eggs for in vitro fertilization in Petri dishes. Fertilized eggs were placed in one-tenth strength Modified Barth's Saline (MBS) with 50 μg/ml gentamycin at constant temperature (19° C.) in a temperature-controlled incubator and development allowed to proceed under these conditions. Embryos were dejellied by briefly swirling them in a solution of 2% (w/v) L-cysteine, pH 8.0. The embryos then were rinsed extensively with one-tenth strength MBS to wash out the cysteine. Experiments were started within an hour of dejellying the embryos.
Experiments were carried out in 12-well flat-bottom polystyrene plates with 4-8 embryos per well in 1.0 ml of one-tenth strength MBS with 50 μg/ml gentamycin at 19° C. […]

Keller sandwich explants = assay: convergent extension in Keller sandwich explants; design: species or system frog
Text: It is hypothesized, but not relied upon herein, that the effects of compound 1 are mediated by an activity or activities after stage 9 during gastrulation and neurulation, and its effects on blastopore closure and anteroposterior elongation are consistent with inhibition of convergent extension. […] Therefore, compound 1 affects cell motility, cell polarity, and/or cell adhesion in the embryo.

MDCK cells = assay: Trypan blue exclusion cell viability assay; type: cell-based, canine
Text: Cells also remain normal in morphology with both cell-substratum and cell-cell adhesion intact after treatment with compound 1.

MDCK cell wounds = assay: lamellipodial density at the margin of MDCK cell wounds; type: cell-based, canine; details: for Lamellipodial Density: 50 μM, mean ± SEM, * p<0.05 vs control
Description: Lamellipodial protrusion is known to drive most forms of animal cell crawling. At any given time in the migrating cell sheet, some cells are extending lamellipodia at the margin while others are not. […] Therefore, inhibition of cell sheet migration by compound 1 at least in part is attributed to reduced formation of lamellipodia at the would margin.
Lamellipodial density at the margin of MDCK cell wounds was determined under the following treatment conditions: 0.1% DMSO (control, n=25 wounded monolayers), 50 μM compound 1 (n=19), or 50 μM compound 11 (n=10). Lamellipodial density is the number of lamellipodial protrusions detected at the wound margin until closure for the times indicated divided by margin perimeter length. Values are mean±SEM.
Wound closure assay and compound screening: MDCK cells were plated on multiwell tissue culture plates and cultured at 37° C. and 5% CO2 with medium changes every two days until confluent. When the cultures reached confluence, medium was changed again and all experimental treatments were begun a day later. Compounds were solubilized in dimethyl sulfoxide (DMSO) and added with fresh-medium to cell cultures at initial screening concentrations of 10 and 100 μM. Controls consisted of parallel wells to-which DMSO solvent carrier alone was added at the same concentration as that added with experimental treatments (not exceeding 0.1% (v/v)). DMSO alone at this concentration had no detectable effect on the cells. Monolayers were scraped 30 min later with a micropipette and ultramicro tips, allowing small wounds of consistent size to be generated. Progress of wound closure was examined at set time intervals following wounding by microscope, and inhibitory or acceleratory effects on wound closure relative to parallel controls noted. […] Digital images of the wounded monolayers were taken every 2 hours for 18 hours, and then at 30, 36, 54, 60, and 72 hours following wounding. The number of lamellipodia at the wound margin was also counted at these times.

C/C=C/C(=O)N1C(=O)OC[C@@H]1Cc1ccccc1 [Compound 1, (4S)-3-((E)-2-butenoyl)-4-benzyl-2-oxazolidinone]
reduction in the length of the tail (Xenopus laevis embryos; 15 μM added at 2-cell stage): evident | effects on anteroposterior elongation, head and eye development, visceral organogenesis and yolk resorption (Xenopus laevis embryos; 15 μM added at 2-cell stage, 48 hours): significant effects | anteroposterior length, head development, eye pigmentation, visceral organogenesis and yolk resorption versus control embryos (Xenopus laevis embryos; 15 μM added at stage 8.5-9, 48, 72 or 96 hours after treatment, Student's t-test): significantly different | exposure before washing out with no significant effect on later development (Xenopus laevis embryos; 15 μM, stage 8.5-9 embryos): up to 9 hours | exposure resulting in significant defects in postneurula analyses (Xenopus laevis embryos; 15 μM, stage 8.5-9 embryos): ≥ 12 h | EC50 (Xenopus laevis embryos; read-out: EC50 with respect to the defective phenotype at 72 hr following treatment): 13.9 µM | EC50 (Xenopus laevis embryos; read-out: log EC50+standard error of log EC50 (converted)): 13.9 µM | concentration lethal to the embryos (Xenopus laevis embryos; frog embryos): 2 to 3 times the EC50 | blastopore closure in gastrulating embryos (Xenopus laevis embryos; treatment at stage 8.5-9 or 2-cell stage): delayed | convergent extension (Keller sandwich explants): inhibits convergent extension | toxicity at concentrations that inhibit cell migration (MDCK cells): no general toxicity; also recorded: no evidence of toxicity or metabolic distress | Lamellipodial Density (MDCK cell wounds; 2 hours): 0.341 ± 0.119 | Lamellipodial Density (MDCK cell wounds; 4 hours): 0.573 ± 0.194* | Lamellipodial Density (MDCK cell wounds; 6 hours): 0.563 ± 0.142* | Lamellipodial Density (MDCK cell wounds; 8 hours): 0.938 ± 0.184* | Lamellipodial Density (MDCK cell wounds; 10 hours): 0.803 ± 0.203 | Lamellipodial Density (MDCK cell wounds; 12 hours): 0.520 ± 0.124* | cells extending lamellipodia at the margin (MDCK cell wounds; versus control): significantly fewer cells extending lamellipodia at the margin
